One experiment addresses T1, human CB1 receptor (Homo sapiens, UniProt P21554).
T1 construct: host or cells: CHO-K1
Kind of experiment: CB1 radioligand competitive binding assay ([3H]CP 55,940 displacement).

The target of another experiment is T2, human CB2 receptor (Homo sapiens, UniProt P34972).
T2 construct: host or cells: CHO-K1
As to the kind of experiment: CB2 radioligand competitive binding assay ([3H]CP 55,940 displacement). The note with it: for Selectivity CB2: fold difference in selectivity between CB1 and CB2 binding, in the column of the receptor with the higher binding affinity. The method, then:
Compounds of the present disclosure were tested for CB1 receptor binding affinity and for CB2 receptor binding affinity. As used herein, “binding affinity” is represented by the IC50 value, which was experimentally determined as described herein. The lower the IC50 value the higher the binding affinity. A compound of the present disclosure may be said to have “binding selectivity” if it has a higher binding affinity for one receptor compared to the other.
The membranes were prepared from CHO-K1 (Chinese hamster ovary) cells stably transfected with the human CB2 receptor (Cat. #ES-111-C; Perkin Elmer, Boston, MA). The cells were grown adherently and maintained in Ham's F12 medium containing 10% fetal bovine serum (FBS), penicillin, streptomycin and geneticin (G418) at 37° C. in a humid atmosphere of 5% CO2 following the manufacturer's instructions.
For membrane preparation the cells were washed with PBS and scraped off the plates in cold homogenization buffer (25 mM HEPES (pH 7.4), 2 mM EDTA) containing protease inhibitor cocktail (Sigma Cat. #P8340). The cell suspension was homogenized with a Pro-PK-01200D Polytron Homogenizer (Pro Scientific) and then centrifuged for 30 min at 120,000×g. The supernatant was discarded and the pellet was re-suspended in the homogenization buffer and stored at −80° C. until the time of use.
In this experiment, 3H radiolabeled CP 55,940, i.e. [3H]CP 55,940 (Perkin Elmer, Boston, MA), was used as a radioligand for the CB2 receptor to determine the binding affinity of compounds for the CB2 receptor (Scheme 7; above).
The competition binding experiments (single dose and dose-response) were performed by incubating 0.6 nM of [3H]CP55,940 (specific activity 101 Ci/mmol, Perkin Elmer) and different concentrations of compounds disclosed herein with membranes prepared as above from CHO-K1 cells expressing human CB2 receptor (1 μg of protein/well), 50 mM Tris-HCl (pH 7.4), 5 mM MgCl2, 1 mM CaCl2, and 2 mg/mL BSA.
For the single dose experiments, the compound stocks (usually 10 mM in DMSO) were diluted to working stocks in the binding buffer to give the final compound concentrations of 10 μM and 1 μM. For the dose-response experiments the test compounds were sequentially diluted to provide the desired concentration range for the IC50 determination. In each case the compounds were pre-incubated with the membrane for 20 min, before adding the radioligand.
After incubation with the radioligand for 60 min at 37° C., the incubation was terminated by rapid filtration of assay mixture through MultiScreen®HTS^+ 96-well filter plates (Millipore, Cat. #MSFCNXB), pre-soaked for 60 min with 50 mM Tris-HCl (pH 7.4) containing 0.33% polyethylenimine (PEI). The nonspecific binding (NSB) was determined in the presence of 10 μM unlabelled CP55,940. After drying the filter plate at 50° C. for at least 60 min, the filter-bound radioactivity was determined by scintillation spectrometry using the 1450 MicroBeta Plate Counter (Perkin Elmer, Boston, MA). From the dose-response experiments, the IC50 values were determined (see Table 1, CB2 IC50).
Where the test compound had about the same affinity for both receptors, this is represented by a value of 1.00 in the column for both receptors.

Setting [1] is: 0.8 nM [3H]CP 55,940, membranes from CHO-K1 cells expressing human CB1 receptor, dose-response, read-out: CB1 IC50.
[2] abbreviates: 0.6 nM [3H]CP55,940, membranes from CHO-K1 cells expressing human CB2 receptor, dose-response, read-out: CB2 IC50.

Like-named read-outs stand apart in the source and are kept apart here.

T1 sequence (P21554 whole entry): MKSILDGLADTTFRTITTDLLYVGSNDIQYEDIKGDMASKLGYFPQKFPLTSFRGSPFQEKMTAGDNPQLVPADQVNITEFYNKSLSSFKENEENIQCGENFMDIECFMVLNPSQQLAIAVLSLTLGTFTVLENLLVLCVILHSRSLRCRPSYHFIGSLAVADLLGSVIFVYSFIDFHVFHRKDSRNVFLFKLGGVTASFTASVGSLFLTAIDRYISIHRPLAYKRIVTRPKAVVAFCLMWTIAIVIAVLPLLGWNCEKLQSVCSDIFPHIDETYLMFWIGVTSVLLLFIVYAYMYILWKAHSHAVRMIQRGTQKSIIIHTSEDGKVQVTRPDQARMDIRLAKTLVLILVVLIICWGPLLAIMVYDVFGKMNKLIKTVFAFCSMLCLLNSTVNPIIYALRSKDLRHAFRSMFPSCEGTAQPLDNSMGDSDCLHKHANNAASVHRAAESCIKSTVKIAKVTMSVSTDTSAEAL
T2 sequence (P34972 whole entry): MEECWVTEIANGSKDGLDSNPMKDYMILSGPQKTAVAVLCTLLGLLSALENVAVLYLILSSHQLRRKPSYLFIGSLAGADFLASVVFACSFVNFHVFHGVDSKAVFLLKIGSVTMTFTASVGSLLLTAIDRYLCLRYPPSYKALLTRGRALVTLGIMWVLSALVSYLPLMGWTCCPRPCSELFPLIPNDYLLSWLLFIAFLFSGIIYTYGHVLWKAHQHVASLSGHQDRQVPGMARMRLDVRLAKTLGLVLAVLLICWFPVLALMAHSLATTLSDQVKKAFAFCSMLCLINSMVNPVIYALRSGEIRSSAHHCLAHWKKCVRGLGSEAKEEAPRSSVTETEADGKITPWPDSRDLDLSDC

For orientation: IC50 means the concentration that gives 50% inhibition. For `CCCCCc1cc(O)c(C/C=C(\C)CCC=C(C)C)c(O)c1S(C)(=O)=O` [Compound 3, 2-(3,7-dimethylocta-2,6-dien-1-yl)-4-(methylsulfonyl)-5-pentylbenzene-1,3-diol], the values for the IC50 on human CB1 receptor (setting [1]) and on human CB2 receptor (setting [2]) were greater than 1000 nM and 500 to 990 nM, respectively. On human CB2 receptor, the “Selectivity CB2” value is reported as 1.47 fold.
In the case of `CCCCCc1cc(O)c(C/C=C(\C)CCC=C(C)C)c(O)c1S(=O)(=O)NC` [Compound 20, 3-(3,7-dimethylocta-2,6-dien-1-yl)-2,4-dihydroxy-N-methyl-6-pentylbenzenesulfonamide], the IC50 at human CB1 receptor was greater than 1000 nM. On human CB2 receptor, the IC50 fell in the range of 100 to 490 nM and the “Selectivity CB2” value amounted to 3.93 fold.
As for `CCCCCc1cc(O)c(C/C=C(\C)CCC=C(C)C)c(O)c1S(=O)(=O)NC(C)C` [Compound 23, 3-(3,7-dimethylocta-2,6-dien-1-yl)-2,4-dihydroxy-N-isopropyl-6-pentylbenzenesulfonamide], the IC50 is greater than 1000 nM at human CB1 receptor (setting [1]) and 100 to 490 nM at human CB2 receptor (setting [2]). Further, the “Selectivity CB2” value on human CB2 receptor is listed as 18.43 fold.
The matching figures for `CCCCCc1cc(O)c(C/C=C(\C)CCC=C(C)C)c(O)c1S(=O)(=O)Nc1ccccc1` [Compound 24, 3-(3,7-dimethylocta-2,6-dien-1-yl)-2,4-dihydroxy-6-pentyl-N-phenylbenzenesulfonamide]: 100 to 490 nM, less than 100 nM and 61.50 fold.
For `CCCCCc1cc(O)c(C/C=C(\C)CCC=C(C)C)c(O)c1S(=O)(=O)N1CCOCC1` [Compound 28, 2-(3,7-dimethylocta-2,6-dien-1-yl)-4-(morpholinosulfonyl)-5-pentylbenzene-1,3-diol], in that order: 500 to 990 nM, less than 100 nM and 266.67 fold.
Turning to `CCCCCc1cc(O)c(C/C=C(\C)CCC=C(C)C)c(O)c1C(=O)NS(=O)(=O)c1ccccc1` [Compound 58, 3-(3,7-dimethylocta-2,6-dien-1-yl)-2,4-dihydroxy-6-pentyl-N-(phenylsulfonyl)benzamide], the half-maximal inhibitory concentration (IC50) at human CB1 receptor (setting [1]) and at human CB2 receptor (setting [2]) was greater than 1000 nM in each case. Also, on human CB2 receptor, the “Selectivity CB2” value is 1.88 fold.
For `CCCCCc1cc(O)c(C/C=C(\C)CCC=C(C)C)c(O)c1S(=O)(=O)NC1CCCCC1` [Compound 62, N-cyclohexyl-3-(3,7-dimethylocta-2,6-dien-1-yl)-2,4-dihydroxy-6-pentylbenzenesulfonamide], the IC50 was greater than 1000 nM at human CB1 receptor (setting [1]) and 100 to 490 nM on human CB2 receptor (setting [2]). Further, the “Selectivity CB2” value on human CB2 receptor is 9.04 fold.
For `CCCCCc1cc(O)c(C/C=C(\C)CCC=C(C)C)c(O)c1S(=O)(=O)NC1CCC1` [Compound 63, N-cyclobutyl-3-(3,7-dimethylocta-2,6-dien-1-yl)-2,4-dihydroxy-6-pentylbenzenesulfonamide], the IC50 at human CB1 receptor (setting [1]) is greater than 1000 nM; on human CB2 receptor (setting [2]), less than 100 nM. At human CB2 receptor, the “Selectivity CB2” value turned out to be 24.80 fold.
As for `CCCCCCNS(=O)(=O)c1c(CCCCC)cc(O)c(C/C=C(\C)CCC=C(C)C)c1O` [Compound 64, 3-(3,7-dimethylocta-2,6-dien-1-yl)-N-hexyl-2,4-dihydroxy-6-pentylbenzenesulfonamide], the IC50 was greater than 1000 nM at human CB1 receptor (setting [1]) and 100 to 490 nM at human CB2 receptor (setting [2]). In addition, the “Selectivity CB2” value at human CB2 receptor is given as 7.89 fold.
For `C=CCNS(=O)(=O)c1c(CCCCC)cc(O)c(C/C=C(\C)CCC=C(C)C)c1O` [Compound 65, N-allyl-3-(3,7-dimethylocta-2,6-dien-1-yl)-2,4-dihydroxy-6-pentylbenzenesulfonamide], in that order: greater than 1000 nM, less than 100 nM and 25.50 fold.
For `CCCCCc1cc(O)c(C/C=C(\C)CCC=C(C)C)c(O)c1C(=O)NS(=O)(=O)c1cccnc1` [Compound 66, 3-(3,7-dimethylocta-2,6-dien-1-yl)-2,4-dihydroxy-6-pentyl-N-(pyridin-3-ylsulfonyl)benzamide], the IC50 on human CB1 receptor (setting [1]) and at human CB2 receptor (setting [2]) was greater than 1000 nM each time. In addition, the “Selectivity CB2” value at human CB2 receptor came out at 1.88 fold.
`CCCCCc1cc(O)c(C/C=C(\C)CCC=C(C)C)c(O)c1S(=O)(=O)Oc1ccccc1` [Compound 67, phenyl-3-(3,7-dimethylocta-2,6-dien-1-yl)-2,4-dihydroxy-6-pentylbenzenesulfonate]: the IC50 on human CB1 receptor (setting [1]) was greater than 1000 nM; on human CB2 receptor (setting [2]), 100 to 490 nM. Besides, the “Selectivity CB2” value on human CB2 receptor came out at 20.83 fold.

Values taken from patent US12084407B2, “Cannabigerol derivatives and use thereof as cannabinoid receptor modulators” (CANOPY GROWTH CORPORATION, priority 2019, dated 2024).
